Counter-ions that a name gives are not always drawn. Like-named read-outs stand apart in the source and are kept apart here.
What was measured:
[1] = molecular target: T1, strychnine insensitive glycine binding site (NMDA receptor complex) (Rattus norvegicus, UniProt P35439); assay: affinity for strychnine insensitive glycine binding site
T1 construct: from tissue

[2] = test system: NMDA induced convulsions in mice; assay: inhibition of NMDA induced convulsions in mice; assay type: in vivo; details: Mus musculus, dose to protect 50 % of the animals from NMDA (intracerebroventricular) convulsions
Text: In this test the ability of the compound to inhibit the generalized seizures induced by an intracerebroventricular injection of NMDA in mice was examined at a number of dose levels. […] This expressed as mg/kg is referred to as the ED50 value.

anaesthetised cats = assay: adverse effects in anaesthetised cats; assay type: in vivo, cat; details: doses up to 24 mg/kg
Text: (§1) The compounds of the invention are essentially non toxic at therapeutically useful doses.

conscious dogs = assay: adverse effects in conscious dogs; assay type: in vivo, dog; details: doses up to 24 mg/kg
Text: as §1

[3] = intravenous, read-out: ED50 i.v
[4] = strychnine insensitive glycine binding site, read-out: pKi (converted)

SMILES	Ki [1, 4] [nM]	also measured
O=C([O-])c1[nH]c2cc(Cl)cc(Cl)c2c1/C=C1\CCN(c2ccccc2)C1=O.[Na+] [Example 3, (E)4,6-dichloro-3-(2oxo-1-phenyl-pyrrolidin-3-ylidenemethyl) -1H-indole-2-carboxylic acid sodium salt]		Ki [1]: 51.3 nM; ED50 [2, 3]: 0.08 mg/kg; ED50 ([2]; oral, read-out: ED50 po): 3.83 mg/kg
O=C(O)c1[nH]c2cc(Cl)cc(Cl)c2c1/C=C1\CCCN(c2ccccc2)C1=O [Example 6, (E)4,6-dichloro-3-(2-oxo-1-phenyI-piperidin-3-ylidenemethyl)-1H-indole-2-carboxylic acid sodium salt]	49	ED50 [2, 3]: 0.09 mg/kg; ED50 ([2]; oral, read-out: ED50 po): 7.5 mg/kg
O=C(O)c1[nH]c2cc(Cl)cc(Cl)c2c1/C=C1\CNN(c2ccccc2)C1=O [Example 8, (E) 4,6-dichloro-3-(5oxy-1-phenyl-pyrazolidin-4ylidenemethyl)-1H-indole-2-carboxylic acid sodium salt]	10	adverse affects when administered (anaesthetised cats): no adverse affects; adverse affects when administered (conscious dogs): no adverse affects; ED50 [2, 3]: 0.1 mg/kg; ED50 ([2]; oral, read-out: ED50 po): 1.7 mg/kg
Nc1ccc(N2NC/C(=C\c3c(C(=O)O)[nH]c4cc(Cl)cc(Cl)c34)C2=O)cc1 [Example 10, (E) 4,6dichloro-3-[(5-oxo-1-(4-aminophenyl))pyrazolidin-4-ylidenemethyl]-1H-indole-2-carboxylic acid hydrochloride salt]	14.8	ED50 [2, 3]: 0.1 mg/kg; ED50 ([2]; oral, read-out: ED50 po): 1.7 mg/kg
O=C(O)c1[nH]c2cc(Cl)cc(Cl)c2c1/C=C1\NC(=O)N(c2ccccc2)C1=O [Example 12, (Z) 4,6-Dichloro-3-(2,5dioxo-1-phenyl-imidazolidin-4-ylidenemethyl)-l H-indole-2-carboxylic acid]	37.2	
O=C(O)c1[nH]c2cc(Cl)cc(Cl)c2c1/C=C1/NC(=O)N(c2ccccc2)C1=O [Example 14, (E) 4,6Dichloro-3-(2.5-dioxo-1-phenyl-imidazolidin-4-ylidenemethyl)-1H-indole-2-carboxylic acid]	74.1	
CC(=O)Nc1ccc(N2NCC(=Cc3c(C(=O)O)[nH]c4cc(Cl)cc(Cl)c34)C2=O)cc1 [Example 18, 4.6-Dichloro-3-[5-oxo1-(4-acetylamino-phenyl)-pyrazolidin-4-ylidenemethyl]-1H-indole-2-carboxylic acid]	20	
NC(=O)Nc1ccc(N2NCC(=Cc3c(C(=O)O)[nH]c4cc(Cl)cc(Cl)c34)C2=O)cc1 [Example 20, 4,6-Dichloro-3-[5-oxo-1-(4-ureido-phenyl)-pyrazolidin-4-ylidenemethyl]-1H-indole-2-carboxylic acid]	20.4	
CS(=O)(=O)Nc1ccc(N2NCC(=Cc3c(C(=O)O)[nH]c4cc(Cl)cc(Cl)c34)C2=O)cc1 [Example 22, 4,6Dichloro-3-[1-(4-methylsulfamidophenyl)-5-oxo-pyrazolidin4-ylidenemrthyl]-1H-indole-2-carboxylic acid]	21.9	
CN1C/C(=C\c2c(C(=O)O)[nH]c3cc(Cl)cc(Cl)c23)C(=O)N1c1ccccc1 [Example 23, (E) 3[(2-methyl-5-oxo-1-phenyl)pyrazolidin-4-ylidenemethyl]-4,6-dichloro-1H-indole-2-carboxylic acid]	34.7	
O=C(O)c1[nH]c2cc(Cl)cc(Cl)c2c1C=C1CON(c2ccccc2)C1=O [Example 26, 4,6-Dichloro-3-(3-oxo-2-phenyl-isoxazolidin-4-ylidenemethyl)-1H-indole-2-carboxylic acid]	75.9	
Nc1cccc(N2NC/C(=C\c3c(C(=O)O)[nH]c4cc(Cl)cc(Cl)c34)C2=O)c1 [Example 27, (E) 4,6dichloro-3[(5-oxo-1-(3-aminophenyl))pyrazolidin-4-ylidenemethyl]-1H-indole-2-carboxylic acid hydrochloride salt]	20	
O=C(O)c1[nH]c2cc(Cl)cc(Cl)c2c1/C=C1\CC(=O)N(c2ccccc2)C1=O [Example 28, (E) 4,6dichloro-3-(2.5-dioxo-1-phenyl-pyrrolidin-3-ylidenemethyl)-1H-indole-2-carboxylic acid]	41.7	
O=C(O)c1[nH]c2cc(Cl)cc(Cl)c2c1/C=C1\CNN(c2cccc3ccccc23)C1=O [Example 34, (E) 4,6-dichloro-3(5-oxo-1(1-naphthyl)-pyrazolidin-4-ylidenemethyl)-1H-indole-2-carboxylic acid]	49	

From patent US5760059A, “Indole derivatives” (Glaxo Wellcome SpA, priority 1993, dated 1998)
